Experimental data reported in patent publication US8691576B2, “Regeneration and mass propagation of Jatropha curcas through somatic embryogenesis” (Joil (S) Pte Ltd., priority 2008, dated 2014).

Test system: Jatropha curcas immature zygotic embryo and endosperm explants
Assay: Effect of 2,4-D concentration and zygotic embryo size on somatic embryo and calli formation
Assay type: cell-based
Parameters: key to Explant Development Root Length / Explant Development Hypocotyl Length / Explant Development Calli Size: The relative size of explants and calli are indicated by the number of + symbols.; ++: The relative size of explants and calli are indicated by the number of + symbols.; +++: The relative size of explants and calli are indicated by the number of + symbols.; ++++: The relative size of explants and calli are indicated by the number of + symbols.; +++++: The relative size of explants and calli are indicated by the number of + symbols
Conditions: end of 3rd week
Description: Developing fruits were surfaced-sterilized and dissected to yield 200 immature zygotic embryos that were shorter than 1.5 cm in length. The embryos were separated into two groups, “<0.5 cm” and “0.5-1.5 cm”. The endosperm and zygotic embryo explants were cultured on solid media with various concentration of 2,4-D. On the 5th day, the embryos, which became greenish, enlarged and hardened, were removed from the endosperms and cut into small pieces of about 0.25 cm^2 each. The endosperm and embryo explants were cultured separately on the same media in the dark at 28° C. It was confirmed that most somatic embryos were produced on the endosperm explants where the embryos had been detached. It is apparent that, although 2,4-D was not essential for initiation of somatic embryos; […] concentration of it causes excessive expansion of explants.

SMILES: O=C(O)COc1ccc(Cl)cc1Cl [2,4-D, 2,4-dichlorophenoxyacetic acid]
- Explant Development Calli Size (2,4-D 0.1 mg/L): ++
- Explant Development Hypocotyl Length (2,4-D 0.1 mg/L): +++++
- Explant Development Root Length (2,4-D 0.1 mg/L): ++++
- Explant Development Calli Size (2,4-D 0.2 mg/L): ++
- Explant Development Hypocotyl Length (2,4-D 0.2 mg/L): ++++
- Explant Development Root Length (2,4-D 0.2 mg/L): +++
- Explant Development Calli Size (2,4-D 0.5 mg/L): +++
- Explant Development Hypocotyl Length (2,4-D 0.5 mg/L): +++
- Explant Development Root Length (2,4-D 0.5 mg/L): ++
- Explant Development Calli Size (2,4-D 1 mg/L): ++++
- Explant Development Hypocotyl Length (2,4-D 1 mg/L): +++
- Explant Development Root Length (2,4-D 1 mg/L): ++
- Explant Development Calli Size (2,4-D 2 mg/L): ++++
- Explant Development Hypocotyl Length (2,4-D 2 mg/L): +
- Explant Development Root Length (2,4-D 2 mg/L): +
- Explant Development Calli Size (2,4-D 5 mg/L): +++
- Explant Development Hypocotyl Length (2,4-D 5 mg/L): +
- Explant Development Root Length (2,4-D 5 mg/L): +
- Explant Development Calli Size (2,4-D 10 mg/L): +++
- Explant Development Hypocotyl Length (2,4-D 10 mg/L): +
- Explant Development Root Length (2,4-D 10 mg/L): +
- Explant Development Calli Size (2,4-D 15 mg/L): ++
- Explant Development Hypocotyl Length (2,4-D 15 mg/L): +
- Explant Development Root Length (2,4-D 15 mg/L): +
- Explant Development Calli Size (2,4-D 20 mg/L): +
- Explant Development Hypocotyl Length (2,4-D 20 mg/L): +
- Explant Development Root Length (2,4-D 20 mg/L): +
- Calli formation: more favorable at about 0.5-10 mg/l
